Measurements from PubChem BioAssay AID1963864 (Molecular Pharmacology Branch, DTP, NCI, 2024).

System: KRAS PDC multicell spheroid viability
Test: Anticancer human tumor 521955-158-R6-J3-PDC patient-derived pancreatic carcinoma cell line growth inhibition [KRAS2]
Conditions: for IC50: curve of first compound; for viability, T/C: stronger effect = lower value
Outline: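 KRAS-mutant tumor cells were grown as spheroids with HUVEC endothelial cells and human MSCs as stroma. Targeted agents were tested alone and with KRAS pathway inhibitors. Doses started at or near clinical Cmax, or 10 microM, descending half-log.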

[1] = second compound 0.1 µM, first compound 0.000316 µM
[2] = second compound 0.1 µM, first compound 0.001 µM
[3] = second compound 0.1 µM, first compound 0.00316 µM
[4] = second compound 0.1 µM, first compound 0.01 µM
[5] = second compound 0.1 µM, first compound 0.0316 µM
[6] = second compound 0.1 µM, first compound 0.1 µM
[7] = second compound 0.316 µM, first compound 0.000316 µM
[8] = second compound 0.316 µM, first compound 0.001 µM
[9] = second compound 0.316 µM, first compound 0.00316 µM
[10] = second compound 0.316 µM, first compound 0.01 µM
[11] = second compound 0.316 µM, first compound 0.0316 µM
[12] = second compound 0.316 µM, first compound 0.1 µM
[13] = second compound 1 µM, first compound 0.000316 µM
[14] = second compound 1 µM, first compound 0.001 µM
[15] = second compound 1 µM, first compound 0.00316 µM
[16] = second compound 1 µM, first compound 0.01 µM
[17] = second compound 1 µM, first compound 0.0316 µM
[18] = second compound 1 µM, first compound 0.1 µM
[19] = second compound 3.16 µM, first compound 0.000316 µM
[20] = second compound 3.16 µM, first compound 0.001 µM
[21] = second compound 3.16 µM, first compound 0.00316 µM
[22] = second compound 3.16 µM, first compound 0.01 µM
[23] = second compound 3.16 µM, first compound 0.0316 µM
[24] = second compound 3.16 µM, first compound 0.1 µM
[25] = second compound 10 µM, first compound 0.000316 µM
[26] = second compound 10 µM, first compound 0.001 µM
[27] = second compound 10 µM, first compound 0.00316 µM
[28] = second compound 10 µM, first compound 0.01 µM
[29] = second compound 10 µM, first compound 0.0316 µM
[30] = second compound 10 µM, first compound 0.1 µM
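Note: drug exposure lasted seven days.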
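Throughout, for viability, T/C: 100% = DMSO vehicle wells and lower means fewer viable cells.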

Cn1ncnc1[C@H]1c2n[nH]c(=O)c3cc(F)cc(c23)N[C@@H]1c1ccc(F)cc1 + COc1cc2nc(C)nc(NC(C)c3cc(N)cc(C(F)(F)F)c3)c2cc1OC1CCOC1 showed an IC50 (second compound 0.1 µM) of over 100 nM, an IC50 (second compound 0.316 µM) of over 100 nM and an IC50 (second compound 1 µM) of over 100 nM. The IC50 (second compound 3.16 µM) was over 100 nM, the IC50 (second compound 10 µM) was under 0.316 nM and the viability, T/C [1] was 96.2%. The viability, T/C [2] was 94.9%, the viability, T/C [3] was 86.8% and the viability, T/C [4] was 87.8%. It also gave a viability, T/C [5] of 94%, a viability, T/C [6] of 93.1% and a viability, T/C [7] of 90.5%. The viability, T/C [8] was 92.6%, the viability, T/C [9] was 86.7% and the viability, T/C [10] was 87.8%. For the same molecule, the viability, T/C [11] was 87.3%, the viability, T/C [12] was 84.2% and the viability, T/C [13] was 83.2%. It also gave a viability, T/C [14] of 78.3%, a viability, T/C [15] of 80.5% and a viability, T/C [16] of 86.6%. The viability, T/C [17] was 82.3%, the viability, T/C [18] was 82.6% and the viability, T/C [19] was 68.2%. For the same molecule, the viability, T/C [20] was 73.9%, the viability, T/C [21] was 71.5% and the viability, T/C [22] was 72.3%. The viability, T/C [23] was 71.8%, the viability, T/C [24] was 74.9% and the viability, T/C [25] was 23.4%. For the same molecule, the viability, T/C [26] was 27.8%, the viability, T/C [27] was 9.47% and the viability, T/C [28] was 25.1%. The viability, T/C [29] was 8.29% and the viability, T/C [30] was 16%.
With CN(C)C/C=C/C(=O)Nc1cc2c(Nc3ccc(F)c(Cl)c3)ncnc2cc1O[C@H]1CCOC1 + CC1OCC2(CCN(c3cnc(Sc4ccnc(N)c4Cl)c(N)n3)CC2)C1N the IC50 (second compound 0.1 µM) was over 100 nM, the IC50 (second compound 0.316 µM) was 51.1 nM and the IC50 (second compound 1 µM) was 86.2 nM. For the same molecule, the IC50 (second compound 3.16 µM) was 24.4 nM, the IC50 (second compound 10 µM) was over 100 nM and the viability, T/C [1] was 99.4%. For the same molecule, the viability, T/C [2] was 84.2%, the viability, T/C [3] was 76.7% and the viability, T/C [4] was 55.3%. The viability, T/C [5] was 62.1%, the viability, T/C [6] was 54.8% and the viability, T/C [7] was 99%. It also gave a viability, T/C [8] of 84.7%, a viability, T/C [9] of 69.8% and a viability, T/C [10] of 52.9%. It also gave a viability, T/C [11] of 53%, a viability, T/C [12] of 48.3% and a viability, T/C [13] of 105%. For the same molecule, the viability, T/C [14] was 86.4%, the viability, T/C [15] was 87.4% and the viability, T/C [16] was 64.9%. It also gave a viability, T/C [17] of 69.8%, a viability, T/C [18] of 44.7% and a viability, T/C [19] of 124%. It also gave a viability, T/C [20] of 117%, a viability, T/C [21] of 89.7% and a viability, T/C [22] of 124%. It also gave a viability, T/C [23] of 28.3%, a viability, T/C [24] of 34.8% and a viability, T/C [25] of 110%. For the same molecule, the viability, T/C [26] was 101%, the viability, T/C [27] was 71.8% and the viability, T/C [28] was 60.9%. It also gave a viability, T/C [29] of 50.1% and a viability, T/C [30] of 49.2%.
CC1OCC2(CCN(c3cnc(Sc4ccnc(N)c4Cl)c(N)n3)CC2)C1N (stereo not given) + COc1cc2nc(C)nc(NC(C)c3cc(N)cc(C(F)(F)F)c3)c2cc1OC1CCOC1 was tested, and the IC50 (second compound 0.1 µM) was over 10000 nM, the IC50 (second compound 0.316 µM) was over 10000 nM and the IC50 (second compound 1 µM) was over 10000 nM. It also gave an IC50 (second compound 3.16 µM) of over 10000 nM, an IC50 (second compound 10 µM) of under 31.6 nM and a viability, T/C [5] of 90.6%. For the same molecule, the viability, T/C [6] was 82.6%, the viability, T/C (second compound 0.1 µM, first compound 0.316 µM) was 74.8% and the viability, T/C (second compound 0.1 µM, first compound 1 µM) was 86.5%. It also gave a viability, T/C (second compound 0.1 µM, first compound 3.16 µM) of 116%, a viability, T/C (second compound 0.1 µM, first compound 10 µM) of 114% and a viability, T/C [11] of 82.6%. It also gave a viability, T/C [12] of 86.1%, a viability, T/C (second compound 0.316 µM, first compound 0.316 µM) of 96.8% and a viability, T/C (second compound 0.316 µM, first compound 1 µM) of 87.5%. For the same molecule, the viability, T/C (second compound 0.316 µM, first compound 3.16 µM) was 112%, the viability, T/C (second compound 0.316 µM, first compound 10 µM) was 118% and the viability, T/C [17] was 78%. The viability, T/C [18] was 82.1%, the viability, T/C (second compound 1 µM, first compound 0.316 µM) was 85% and the viability, T/C (second compound 1 µM, first compound 1 µM) was 83.7%. It also gave a viability, T/C (second compound 1 µM, first compound 3.16 µM) of 103%, a viability, T/C (second compound 1 µM, first compound 10 µM) of 124% and a viability, T/C [23] of 76.5%. It also gave a viability, T/C [24] of 79.7%, a viability, T/C (second compound 3.16 µM, first compound 0.316 µM) of 77.2% and a viability, T/C (second compound 3.16 µM, first compound 1 µM) of 76.9%. For the same molecule, the viability, T/C (second compound 3.16 µM, first compound 3.16 µM) was 99.2%, the viability, T/C (second compound 3.16 µM, first compound 10 µM) was 94.6% and the viability, T/C [29] was 43.7%. The viability, T/C [30] was 34%, the viability, T/C (second compound 10 µM, first compound 0.316 µM) was 35.8% and the viability, T/C (second compound 10 µM, first compound 1 µM) was 27.1%. For the same molecule, the viability, T/C (second compound 10 µM, first compound 3.16 µM) was 34.1% and the viability, T/C (second compound 10 µM, first compound 10 µM) was 18%.
